Several values for one entry are separate records, joined by “and”; a condition that tells them apart may be missing. Equal entries are not always repeated. Structures can show the parent of a compound that is named as a salt.
What was measured:
[1] = biological target: T1, human RORγt ligand binding domain (RORγt LBD) (Homo sapiens, UniProt P51449); experiment: RORγt ThermoFluor assay (thermal shift, ligand binding affinity); settings: estimated from concentration response of thermal shift
T1 construct: His-tag (N); TurboTEV protease cleavage site (ENLYFQG) (N); made in house; host or cells: E. coli (pHIS1, modified pET vector)
T1 sequence (P51449 with tags, fused parts or gaps): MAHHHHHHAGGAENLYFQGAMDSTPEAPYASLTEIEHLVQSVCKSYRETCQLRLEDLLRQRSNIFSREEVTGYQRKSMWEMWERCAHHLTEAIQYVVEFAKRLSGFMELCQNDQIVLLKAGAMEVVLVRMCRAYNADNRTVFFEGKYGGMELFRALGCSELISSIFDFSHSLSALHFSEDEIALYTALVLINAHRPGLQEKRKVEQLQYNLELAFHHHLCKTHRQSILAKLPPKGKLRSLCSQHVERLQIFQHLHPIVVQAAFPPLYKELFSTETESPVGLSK
Method: This approach is applicable to a wide variety of systems, and rigorous in theoretical interpretation through quantitation of equilibrium binding constants (KD).
The shift in the melting point described as a ΔTm is proportional to the concentration and affinity of the ligand.
RORγt ThermoFluor® Assay Construct
Protein and compound solutions are dispensed into black 384-well polypropylene PCR microplates (Abgene) and overlayed with silicone oil (1 μL Fluka, type DC 200) to prevent evaporation.
Fluorescence was measured by continuous illumination with UV light (Hamamatsu LC6) supplied via fiber optic and filtered through a band-pass filter (380-400 nm; >6 OD cutoff). Fluorescence emission of the entire 384-well plate was detected by measuring light intensity using a CCD camera (Sensys, Roper Scientific) filtered to detect 500±25 nm, resulting in simultaneous and independent readings of all 384 wells. Images were collected at each temperature, and the sum of the pixel intensity in a given area of the assay plate was recorded versus temperature. Reference wells contained RORγt without compounds, and the assay conditions were as follows: • 0.065 mg/mL RORγt • 60 μM 1,8-ANS • 100 mM Hepes, pH 7.0 • 10 mM NaCl • 2.5 mM GSH • 0.002% Tween-20
Project compounds were arranged in a pre-dosed mother plate (Greiner Bio-one) wherein compounds are serially diluted in 100% DMSO by 1:2 from a high concentration of 10 mM over 12 columns within a series (column 12 is a reference well containing DMSO, no compound).
The compounds were robotically dispensed directly into assay plates (1×=[…]) using a Hummingbird capillary liquid handling instrument (Digilab). Following compound dispense, protein and dye in buffer was added to achieve the final assay volume of 3 μL, followed by 1 μL of silicone oil.

[2] = biological target: T2, human RORγt LBD (Homo sapiens, UniProt P51449); experiment: RORγt reporter assay (GAL4-RORγt LBD luciferase in HEK293T cells); type: cell-based; settings: for IC50: HEK293T cells, 24 hours compound treatment; for inhibition at 6 µM: HEK-293T, read-out: RORγt reporter Assay, % inhibition @ 6 μM, HEK293T cells, 6 μM compound
T2 construct: expressed in transfected cells
T2 sequence (P51449 258-518): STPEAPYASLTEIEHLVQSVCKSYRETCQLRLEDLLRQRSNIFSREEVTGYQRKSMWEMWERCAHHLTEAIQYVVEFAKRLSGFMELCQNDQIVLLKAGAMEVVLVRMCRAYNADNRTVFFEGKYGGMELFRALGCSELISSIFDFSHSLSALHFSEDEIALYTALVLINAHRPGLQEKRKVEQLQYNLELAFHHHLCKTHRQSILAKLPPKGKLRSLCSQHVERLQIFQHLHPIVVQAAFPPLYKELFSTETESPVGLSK
Description: A reporter assay was used to test functional activity of RORγt modulatory compounds on transcriptional activation driven by the RORγt LBD. Cells used in the assay were co-transfected with two constructs. The first construct, pBIND-RORγt LBD, contained the wild type human RORγt LBD fused to the DNA binding domain of the GAL4 protein. The second construct, pGL4.31 (Promega Cat no. C935A), contained multiple GAL4 responsive DNA elements upstream of firefly luciferase. […] The mutant construct was called pBIND-RORγt-AF2.
The pBIND vector contains the GAL4 DNA Binding Domain (GAL4 DBD) and the renilla luciferase gene under control of the SV40 promoter. Renilla luciferase expression serves as a control for transfection efficiency and cell viability.
The reporter assay was performed by transiently transfecting HEK293T cells with 5 ng of pBIND-RORγt LBD or pBIND-RORγt LBD-AF2 and 5 μg pGL4.31 (Promega Cat no. C935A) using Fugene 6 (Invitrogen Cat no. E2691) at a 1:6 ratio of DNA:Fugene 6 in a T-75 flask in which cells were at least 80% confluent. Twenty four hours after bulk transfection, cells were plated into 96-well plates at 50,000 cells/well in phenol-red free DMEM containing 5% Lipid Reduced FCS and Pen/Strep. Six hours after plating, cells were treated with compounds for 24 hours. Media was removed and cells were lysed with 50 μL 1× Glo Lysis Buffer (Promega). Dual Glo Luciferase Reagent (50 μL/well) was then added and firefly luciferase luminescence was read on an Envision after a ten minute incubation. Finally, Stop and Glo reagent (50 μL/well) was added and renilla luciferase luminescence was read on an Envision after a ten minute incubation. To calculate the effect of compounds on RORγt activity, the ratio of firefly to renilla luciferase was determined and plotted against compound concentration. Agonist compounds increase RORγt-driven luciferase expression, and antagonist or inverse agonist compounds decrease luciferase expression.

| SMILES | Kd [1] [µM] | IC50 [2] | inhibition at 6 µM [2] [%] |
| --- | --- | --- | --- |
| Cc1cc(C(O)(c2ccc3nc(Cl)c(-c4ccccc4)c(Cl)c3c2)c2nccn2C)cc(Cl)n1 (stereo not drawn) [Example 46, (2-Chloro-6-methylpyridin-4-yl)(2,4-dichloro-3-phenylquinolin-6-yl)(1-methyl-1H-imidazol-2-yl)methanol] | 4 | 2 µM | 94 |
| OC(c1ccc(Cl)cc1)(c1cccnc1)c1ccc2nc(-c3cccnc3)c(-c3ccccc3)c(Cl)c2c1 (stereo not drawn) [Example 151, (4-Chloro-3-phenyl-2-(pyridin-3-yl)quinolin-6-yl)(4-chlorophenyl)(pyridin-3-yl)methanol] | 5 | 2.2 µM | 85 |
| Cn1cncc1C(O)(c1cccnc1)c1ccc2ncc(-c3ccccc3)c(Cl)c2c1 (stereo not drawn) [Example 51, (4-Chloro-3-phenylquinolin-6-yl)(1-methyl-1H-imidazol-5-yl)pyridin-3-ylmethanol•TFA] | 1.8 | ~4 µM | 75 |
| OC(c1ccc(Cl)nc1)(c1cccc(F)c1)c1ccc2ncc(-c3ccccc3)c(Cl)c2c1 (stereo not drawn) [Example 61, (4-Chloro-3-phenylquinolin-6-yl)(6-chloropyridin-3-yl)(3-fluorophenyl)methanol] | 1.8 | 2 µM | 80 |
| Cc1nn(C)c(C)c1C(O)(c1ccccc1)c1ccc2nc(Cl)c(-c3ccccc3)c(Cl)c2c1 (stereo not drawn) [Example 4, (2,4-Dichloro-3-phenylquinolin-6-yl)(phenyl)(1,3,5-trimethyl-1H-pyrazol-4-yl)methanol] | 3.3 | 3.2 µM | 97 |
| CN(C)c1nc2ccc(C(O)(c3cccnc3)c3ccccn3)cc2c(Cl)c1-c1ccccc1 (stereo not drawn) [Example 43, [4-Chloro-2-(dimethylamino)-3-phenylquinolin-6-yl](pyridin-2-yl)pyridin-3-ylmethanol•TFA] | 1.6 | 1.1 µM | 99 |
| CN(C)c1ccc(C(O)(c2ccc3nc(Cl)c(-c4ccccc4)c(Cl)c3c2)c2cncn2C)cn1 (stereo not drawn) [Example 11, (2,4-Dichloro-3-phenylquinolin-6-yl)[6-(dimethylamino)pyridin-3-yl](1-methyl-1H-imidazol-5-yl)methanol•TFA] | 1.1 | 4.2 µM | 75 |
| Cn1ccnc1C(O)(c1ccnnc1)c1ccc2nc(Cl)c(-c3ccccc3)c(Cl)c2c1 (stereo not drawn) [Example 121, (2,4-Dichloro-3-phenylquinolin-6-yl)(1-methyl-1H-imidazol-2-yl)(pyridazin-4-yl)methanol] | 1.7 | ~2 µM | 72 |
| Cn1cncc1C(N)(c1ccc2nc(Cl)c(-c3ccccc3)c(Cl)c2c1)c1ccccn1 (stereo not drawn) [Example 31, 1-(2,4-Dichloro-3-phenylquinolin-6-yl)-1-(1-methyl-1H-imidazol-5-yl)-1-pyridin-2-ylmethanamine•HCl] | 5.6 | 2.1 µM | 67 |
| CCN(CC)c1nc2ccc(C(O)(c3cccnc3)c3cccc(Cl)c3)cc2c(OC)c1-c1ccccc1 (stereo not drawn) [Example 106, (3-Chlorophenyl)[2-(diethylamino)-4-methoxy-3-phenylquinolin-6-yl]pyridin-3-ylmethanol•TFA] | 1.3 | 2.3 µM | 75 |
| Cc1cc(C(O)(c2ccc(C(F)(F)F)nc2)c2cncn2C)cc2c(C#N)c(-c3ccc(F)cc3)c(C#N)nc12 (single isomer, unassigned) [Example 184b, 3-(4-Fluorophenyl)-6-(hydroxy(1-methyl-1H-imidazol-5-yl)(6-(trifluoromethyl)pyridin-3-yl)methyl)-8-methylquinoline-2,4-dicarbonitrile] | 2.5 | 3 µM | 99 |
| COc1cccc(C(O)(c2cccnc2)c2ccc3ncc(-c4ccccc4)c(Cl)c3c2)c1 (stereo not drawn) [Example 58, (4-Chloro-3-phenylquinolin-6-yl)(3-methoxyphenyl)pyridin-3-ylmethanol] | 2.2 | ~6 µM | 40 |

The next lines start with the values.

| Kd [1] [µM] | IC50 [2] | inhibition at 6 µM [2] [%] | SMILES |
| --- | --- | --- | --- |
| 0.27 | ~2 µM | 92 | CCCCc1c(-c2ccccc2)c(Cl)nc2ccc(C(O)(c3ccncc3)c3cncn3C)cc12 (stereo not drawn) [Example 78, (4-Butyl-2-chloro-3-phenylquinolin-6-yl)(1-methyl-1H-imidazol-5-yl)pyridin-4-ylmethanol•TFA] |
| 0.42 | ~2 µM | 88 | COC1CCN(c2nc3ccc(C(O)(c4ccncc4)c4cncn4C)cc3c(Cl)c2-c2ccccc2)CC1 (stereo not drawn) [Example 75, [4-Chloro-2-(4-methoxypiperidin-1-yl)-3-phenylquinolin-6-yl](1-methyl-1H-imidazol-5-yl)pyridin-4-ylmethanol•TFA] |
| 0.053 | 0.58 µM | 100 | CCc1nc2ccc(C(O)(c3ccncc3)c3cncn3C)cc2c(CC)c1-c1ccccc1 (stereo not drawn) [Example 97, (2,4-Diethyl-3-phenylquinolin-6-yl)(1-methyl-1H-imidazol-5-yl)pyridin-4-ylmethanol•TFA] |
| 1.1 | 1.3 µM | 97 | COCCCn1cncc1C(O)(c1ccc(Cl)cc1)c1ccc2nc(Cl)c(-c3ccccc3)c(Cl)c2c1 (stereo not drawn) [Example 147, (4-Chlorophenyl)(2,4-dichloro-3-phenylquinolin-6-yl)(1-(3-methoxypropyl)-1H-imidazol-5-yl)methanol] |
| 0.17 | 0.32 µM | 93 | CCOc1nc2ccc(C(O)(c3cccnc3)c3cccc(Cl)c3)cc2c(Cl)c1-c1ccccc1 (stereo not drawn) [Example 81, (4-Chloro-2-ethoxy-3-phenylquinolin-6-yl)(3-chlorophenyl)pyridin-3-ylmethanol•TFA] |
| 0.64 | 1 µM and ~2 µM | 77 | OC(c1ccc(C(F)(F)F)nc1)(c1cccc(Cl)c1)c1ccc2nc(Cl)c(-c3ccccc3)c(Cl)c2c1 (stereo not drawn) [Example 111, (3-Chlorophenyl)(2,4-dichloro-3-phenylquinolin-6-yl)(6-(trifluoromethyl)pyridin-3-yl)methanol] |
| 0.51 | 1.2 µM | 73 | COc1nc2ccc(C(O)(c3cccnc3)c3cccc(Cl)c3)cc2c(OC)c1-c1ccccc1 (stereo not drawn) [Example 79, (3-Chlorophenyl)(2,4-dimethoxy-3-phenylquinolin-6-yl)pyridin-3-ylmethanol•TFA] |
| 0.021 | 0.22 µM | 97 | Cn1cncc1C(O)(c1ccnnc1)c1ccc2nc(Cl)c(-c3ccccc3)c(Cl)c2c1 (stereo not drawn) [Example 126, (2,4-Dichloro-3-phenylquinolin-6-yl)(1-methyl-1H-imidazol-5-yl)(pyridazin-4-yl)methanol] |

Source: patent US9309222B2, “Phenyl linked quinolinyl modulators of RORγt” (Janssen Pharmaceutica NV, priority 2012, dated 2016)
